# Laboratory results: patent US20050197350A1, “Novel quinoline, tetrahydroquinazoline, and pyrimidine derivatives and methods of treatment related to the use thereof” (TAISHO PHARMACEUTICAL CO., LTD., priority 2003, published 2005)
# Tested on: MCH receptors
# Test: MCH receptor activity class (method not given)
# Conditions: activity class 1-3: percent of control at 10^-7 M or IC50
row,Compound,class
1,CCOC(=O)N[C@H]1CC[C@@H](Nc2cc(N(C)C)c3ccccc3n2)CC1 [compound 1547],3 (Class 3 The value of percent of control at 10^−7 M was more than 60% or the value of IC50 was more than 200 nM.)
2,CN(C)c1cc(NC2CCC(NC(=O)OCc3ccc([N+](=O)[O-])cc3)CC2)nc2ccccc12 (stereo not drawn) [compound 1548],3 (Class 3 The value of percent of control at 10^−7 M was more than 60% or the value of IC50 was more than 200 nM.)
3,CN(C)c1cc(N[C@H]2CC[C@@H](NC(=O)Oc3ccc4ccccc4c3)CC2)nc2ccccc12 [compound 1549],3 (Class 3 The value of percent of control at 10^−7 M was more than 60% or the value of IC50 was more than 200 nM.)
4,C=CCOC(=O)N[C@H]1CC[C@@H](Nc2cc(N(C)C)c3ccccc3n2)CC1 [compound 1550],3 (Class 3 The value of percent of control at 10^−7 M was more than 60% or the value of IC50 was more than 200 nM.)
5,CN(C)c1cc(NC2CCC(NC(=O)OCc3ccccc3)CC2)nc2ccccc12 (stereo not drawn) [compound 1551],3 (Class 3 The value of percent of control at 10^−7 M was more than 60% or the value of IC50 was more than 200 nM.)
6,CN(C)c1cc(N[C@H]2CC[C@@H](NC(=O)Oc3ccccc3)CC2)nc2ccccc12 [compound 1552],3 (Class 3 The value of percent of control at 10^−7 M was more than 60% or the value of IC50 was more than 200 nM.)
7,CC(C)[C@@H]1CC[C@@H](C)C[C@H]1OC(=O)N[C@H]1CC[C@@H](Nc2cc(N(C)C)c3ccccc3n2)CC1 [compound 1553],3 (Class 3 The value of percent of control at 10^−7 M was more than 60% or the value of IC50 was more than 200 nM.)
8,Cc1ccc(OC(=O)N[C@H]2CC[C@@H](Nc3cc(N(C)C)c4ccccc4n3)CC2)cc1 [compound 1554],3 (Class 3 The value of percent of control at 10^−7 M was more than 60% or the value of IC50 was more than 200 nM.)
9,COC(=O)N[C@H]1CC[C@@H](Nc2cc(N(C)C)c3ccccc3n2)CC1 [compound 1555],3 (Class 3 The value of percent of control at 10^−7 M was more than 60% or the value of IC50 was more than 200 nM.)
10,CN(C)c1cc(N[C@H]2CC[C@@H](NC(=O)OCc3ccccc3Cl)CC2)nc2ccccc12 [compound 1556],3 (Class 3 The value of percent of control at 10^−7 M was more than 60% or the value of IC50 was more than 200 nM.)
11,CN(C)c1cc(N[C@H]2CC[C@@H](NC(=O)OCC3c4ccccc4-c4ccccc43)CC2)nc2ccccc12 [compound 1557],3 (Class 3 The value of percent of control at 10^−7 M was more than 60% or the value of IC50 was more than 200 nM.)
12,CN(C)c1cc(N[C@H]2CC[C@@H](NC(=O)OCC(Cl)(Cl)Cl)CC2)nc2ccccc12 [compound 1558],3 (Class 3 The value of percent of control at 10^−7 M was more than 60% or the value of IC50 was more than 200 nM.)
13,CN(C)c1cc(N[C@H]2CC[C@@H](CNC(=O)OCCOCc3ccccc3)CC2)nc2ccccc12 [compound 1559],3 (Class 3 The value of percent of control at 10^−7 M was more than 60% or the value of IC50 was more than 200 nM.)
14,CN(C)c1cc(N[C@H]2CC[C@@H](CNC(=O)OCC(C)(C)C)CC2)nc2ccccc12 [compound 1560],3 (Class 3 The value of percent of control at 10^−7 M was more than 60% or the value of IC50 was more than 200 nM.)
15,COc1cc(COC(=O)NC[C@H]2CC[C@@H](Nc3cc(N(C)C)c4ccccc4n3)CC2)c([N+](=O)[O-])cc1OC [compound 1561],3 (Class 3 The value of percent of control at 10^−7 M was more than 60% or the value of IC50 was more than 200 nM.)
16,CN(C)c1cc(N[C@H]2CC[C@@H](CNC(=O)Oc3cccc(C(F)(F)F)c3)CC2)nc2ccccc12 [compound 1562],3 (Class 3 The value of percent of control at 10^−7 M was more than 60% or the value of IC50 was more than 200 nM.)
17,CN(C)c1cc(N[C@H]2CC[C@@H](CNC(=O)Oc3ccc(Br)cc3)CC2)nc2ccccc12 [compound 1563],3 (Class 3 The value of percent of control at 10^−7 M was more than 60% or the value of IC50 was more than 200 nM.)
18,COc1ccccc1OC(=O)NC[C@H]1CC[C@@H](Nc2cc(N(C)C)c3ccccc3n2)CC1 [compound 1564],3 (Class 3 The value of percent of control at 10^−7 M was more than 60% or the value of IC50 was more than 200 nM.)
19,COCCOC(=O)NC[C@H]1CC[C@@H](Nc2cc(N(C)C)c3ccccc3n2)CC1 [compound 1565],3 (Class 3 The value of percent of control at 10^−7 M was more than 60% or the value of IC50 was more than 200 nM.)
20,CCCCCCCCOC(=O)NC[C@H]1CC[C@@H](Nc2cc(N(C)C)c3ccccc3n2)CC1 [compound 1566],3 (Class 3 The value of percent of control at 10^−7 M was more than 60% or the value of IC50 was more than 200 nM.)
21,CCOC(=O)NC[C@H]1CC[C@@H](Nc2cc(N(C)C)c3ccccc3n2)CC1 [compound 1567],3 (Class 3 The value of percent of control at 10^−7 M was more than 60% or the value of IC50 was more than 200 nM.)

row,Compound,class
1,CN(C)c1cc(N[C@H]2CC[C@@H](CNC(=O)OCc3ccc([N+](=O)[O-])cc3)CC2)nc2ccccc12 [compound 1568],3 (Class 3 The value of percent of control at 10^−7 M was more than 60% or the value of IC50 was more than 200 nM.)
2,CN(C)c1cc(N[C@H]2CC[C@@H](CNC(=O)Oc3ccc4ccccc4c3)CC2)nc2ccccc12 [compound 1569],3 (Class 3 The value of percent of control at 10^−7 M was more than 60% or the value of IC50 was more than 200 nM.)
3,C=CCOC(=O)NC[C@H]1CC[C@@H](Nc2cc(N(C)C)c3ccccc3n2)CC1 [compound 1570],3 (Class 3 The value of percent of control at 10^−7 M was more than 60% or the value of IC50 was more than 200 nM.)
4,CN(C)c1cc(N[C@H]2CC[C@@H](CNC(=O)OCc3ccccc3)CC2)nc2ccccc12 [compound 1571],3 (Class 3 The value of percent of control at 10^−7 M was more than 60% or the value of IC50 was more than 200 nM.)
5,CN(C)c1cc(N[C@H]2CC[C@@H](CNC(=O)Oc3ccccc3)CC2)nc2ccccc12 [compound 1572],3 (Class 3 The value of percent of control at 10^−7 M was more than 60% or the value of IC50 was more than 200 nM.)
6,CC(C)[C@@H]1CC[C@@H](C)C[C@H]1OC(=O)NC[C@H]1CC[C@@H](Nc2cc(N(C)C)c3ccccc3n2)CC1 [compound 1573],3 (Class 3 The value of percent of control at 10^−7 M was more than 60% or the value of IC50 was more than 200 nM.)
7,Cc1ccc(OC(=O)NC[C@H]2CC[C@@H](Nc3cc(N(C)C)c4ccccc4n3)CC2)cc1 [compound 1574],3 (Class 3 The value of percent of control at 10^−7 M was more than 60% or the value of IC50 was more than 200 nM.)
8,COC(=O)NC[C@H]1CC[C@@H](Nc2cc(N(C)C)c3ccccc3n2)CC1 [compound 1575],3 (Class 3 The value of percent of control at 10^−7 M was more than 60% or the value of IC50 was more than 200 nM.)
9,CN(C)c1cc(N[C@H]2CC[C@@H](CNC(=O)OCc3ccccc3Cl)CC2)nc2ccccc12 [compound 1576],3 (Class 3 The value of percent of control at 10^−7 M was more than 60% or the value of IC50 was more than 200 nM.)
10,CN(C)c1cc(N[C@H]2CC[C@@H](CNC(=O)OCC3c4ccccc4-c4ccccc43)CC2)nc2ccccc12 [compound 1577],3 (Class 3 The value of percent of control at 10^−7 M was more than 60% or the value of IC50 was more than 200 nM.)
11,CN(C)c1cc(N[C@H]2CC[C@@H](CNC(=O)OCC(Cl)(Cl)Cl)CC2)nc2ccccc12 [compound 1578],3 (Class 3 The value of percent of control at 10^−7 M was more than 60% or the value of IC50 was more than 200 nM.)
12,CN(C)c1nc(N[C@H]2CC[C@@H](NC(=O)OCCOCc3ccccc3)CC2)nc2c1CCCC2 [compound 1579],3 (Class 3 The value of percent of control at 10^−7 M was more than 60% or the value of IC50 was more than 200 nM.)
13,CN(C)c1nc(N[C@H]2CC[C@@H](NC(=O)OCC(C)(C)C)CC2)nc2c1CCCC2 [compound 1580],3 (Class 3 The value of percent of control at 10^−7 M was more than 60% or the value of IC50 was more than 200 nM.)
14,"COc1cc(COC(=O)NC2CCC(Nc3nc4c(c(N(C)C)n3)CCCC4)CC2)c([N+](=O)[O-])cc1OC (stereo not drawn) [compound 1581, [4-(4-Dimethylamino-5,6,7,8-tetrahydro-quinazolin-2-ylamino)-cyclohexy]-carbamic acid 4,5-dimethoxy-2-nitro-benzyl ester]",2 (Class 2: The value of percent of control at 10^−7 M was from 40% to 60% or the value of IC′50 was from 50 nM to 200 nM.)
15,CN(C)c1nc(N[C@H]2CC[C@@H](NC(=O)Oc3cccc(C(F)(F)F)c3)CC2)nc2c1CCCC2 [compound 1582],3 (Class 3 The value of percent of control at 10^−7 M was more than 60% or the value of IC50 was more than 200 nM.)
16,CN(C)c1nc(N[C@H]2CC[C@@H](NC(=O)Oc3ccc(Br)cc3)CC2)nc2c1CCCC2 [compound 1583],3 (Class 3 The value of percent of control at 10^−7 M was more than 60% or the value of IC50 was more than 200 nM.)
17,COc1ccccc1OC(=O)N[C@H]1CC[C@@H](Nc2nc3c(c(N(C)C)n2)CCCC3)CC1 [compound 1584],3 (Class 3 The value of percent of control at 10^−7 M was more than 60% or the value of IC50 was more than 200 nM.)
18,COCCOC(=O)N[C@H]1CC[C@@H](Nc2nc3c(c(N(C)C)n2)CCCC3)CC1 [compound 1585],3 (Class 3 The value of percent of control at 10^−7 M was more than 60% or the value of IC50 was more than 200 nM.)
19,CCCCCCCCOC(=O)N[C@H]1CC[C@@H](Nc2nc3c(c(N(C)C)n2)CCCC3)CC1 [compound 1586],3 (Class 3 The value of percent of control at 10^−7 M was more than 60% or the value of IC50 was more than 200 nM.)
20,CCOC(=O)N[C@H]1CC[C@@H](Nc2nc3c(c(N(C)C)n2)CCCC3)CC1 [compound 1587],3 (Class 3 The value of percent of control at 10^−7 M was more than 60% or the value of IC50 was more than 200 nM.)
21,CN(C)c1nc(N[C@H]2CC[C@@H](NC(=O)OCc3ccc([N+](=O)[O-])cc3)CC2)nc2c1CCCC2 [compound 1588],3 (Class 3 The value of percent of control at 10^−7 M was more than 60% or the value of IC50 was more than 200 nM.)
